Here are results for 7 molecules from patent US8044094B2, “Agents for preventing and treating disorders connected to impaired neurotransmission” (DSM IP Assets B.V., priority 2004, dated 2011).

Test [1] has as its target T1, human serotonin re-uptake transporter (hSERT) (Homo sapiens, UniProt P31645). The experiment in a line: Serotonin uptake inhibition in HEK-293 cells stably expressing hSERT. In kind it is cell-based. As for the experimental part:
HEK-293 cells stably expressing the human serotonin re-uptake transporter (hSERT) were obtained from R. Blakely, Vanderbilt University, USA. The cells were routinely grown in Dulbeco's Modified Eagles Medium, purchased from Bioconcept, Allschwil, Switzerland containing 10% fetal calf serum, penicillin, streptomycin, L-glutamine and the antibiotic G418 and passaged by trypsinisation. 1 day prior to the assay cells were seeded in the above mentioned medium. Immediately prior to the assay the medium was replaced by Krebs Ringers bicarbonate buffer, purchased from Sigma Chemicals Ltd., supplemented with 35 μM pargyline, 2.2 mM CaCl2, 1 mM ascorbic acid and 5 mM N-2-hydroxyethylpiperazine-N′-2-ethanesulfonic acid (buffer called “Hepes”). Serotonin uptake into the cells was determined by addition of radio-labeled (3H) serotonin (Amersham Biosciences GE Healthcare, Slough, UK) to a concentration of 20 nM, and incubation for 30 minutes at room temperature. Following removal of unincorporated label by gentle washing three times with the above buffer, incorporated serotonin was quantified by liquid scintillation counting.
(§1) The effect of the coumarin ethers of formula I on the serotonin uptake and the citalopram binding was determined by its inclusion in the assay at a range of concentrations between 0.03 and 100 μM for 10 minutes prior to and during the addition of (3H) serotonin/citalopram. Serotonin uptake via the transporter and citalopram binding were both inhibited by the coumarin ethers of formula I in a dose dependent manner. The calculated inhibition constants Ki, derived from the measured IC50 using the Cheng—Prusoff equation (Y. C. Cheng, W. H. Prusoff, Biochem. Pharmacol. 1973, 22, p. 3099-3108), for inhibition of serotonin uptake and citalopram binding by coumarin ethers of the formula I are shown in Table 1.

Test [2] concerns the target T1, human serotonin re-uptake transporter (hSERT). The experiment in a line: Labeled citalopram displacement from hSERT containing membranes (SPA). In kind it is binding. Here is the method:
Membranes containing hSERT were prepared from the above cell line according to Galli et al, Journal of Experimental Biology 1995, 198, 2197-2212. 3 μg of membrane protein and 0.8 mg of wheat germ aglutinin coated SPA® (scintillation proximity assay) beads (Amersham Biosciences GE Healthcare, Slough, UK) per data point were mixed with radio-labeled (3H) citalopram (Amersham Biosciences GE Healthcare, Slough, UK) until a final concentration of 3.3 nM in 50 mM Tris-HCl, 300 mM NaCl (pH 7.4). After incubation for 18 hours at room temperature, the bound citalopram was quantified by liquid scintillation counting.
as §1

Another test has as its system mice. The experiment in a line: Marble burying test (anxiety like or obsessive compulsive behaviour). In kind it is in vivo. The note with it: for number of marbles covered by sawdust, mean ± s.e.m.: 25 marbles, 30-minute test. As for the experimental part:
The method applied here follows that described by Broekkamp et al. (1986). Mice (n=15 per treatment group) were individually placed in transparent plastic cages (33×21×18 cm) with 5 cm of sawdust on the floor and 25 marbles (diameter 1 cm) grouped in the centre of the cage. A second, up-turned, cage served as a lid. The number of marbles covered by sawdust (by at least two-thirds) was counted at the end of the 30-minute test period. Tests were performed by investigators blind to the drug treatment protocol.
Prior to testing, all test cages and marbles were “impregnated” by leaving 10 naive mice in each cage for 15 minutes.
7-Geranyl-oxycoumarin was evaluated at 3, 10 and 30 mg/kg, administered i.p. 30 minutes before the test, and compared with a vehicle control group. 7-Geranyl-oxycoumarin was dissolved in a saline solution containing 3 weight-% DMSO and 3 weight-% Tween® 80 (so called “vehicle”). To the control group the vehicle consisting of the saline solution containing 3 weight-% DMSO and 3 weight-% Tween® 80 was administered intraperitonally. Fluoxetine (32 mg/kg), administered under the same experimental conditions, was used as a reference substance.
Data were analysed by comparing treated groups with vehicle control using unpaired Student's t-tests.

[3] abbreviates: transfected HEK-293 cells, Ki from IC50 by Cheng-Prusoff, 20 nM (3H) serotonin, read-out: Inhibition constant Ki for tritiated serotonin uptake.
Where [4] appears, read: hSERT containing membranes, Ki from IC50 by Cheng-Prusoff, 3.3 nM (3H) citalopram, read-out: Inhibition constant Ki for tritiated citalopram displacement.

The structures appear in SMILES notation.

For orientation: Ki means the dissociation constant of the complex between target and ligand, obtained from inhibition or displacement.

T1 sequence (P31645 whole entry): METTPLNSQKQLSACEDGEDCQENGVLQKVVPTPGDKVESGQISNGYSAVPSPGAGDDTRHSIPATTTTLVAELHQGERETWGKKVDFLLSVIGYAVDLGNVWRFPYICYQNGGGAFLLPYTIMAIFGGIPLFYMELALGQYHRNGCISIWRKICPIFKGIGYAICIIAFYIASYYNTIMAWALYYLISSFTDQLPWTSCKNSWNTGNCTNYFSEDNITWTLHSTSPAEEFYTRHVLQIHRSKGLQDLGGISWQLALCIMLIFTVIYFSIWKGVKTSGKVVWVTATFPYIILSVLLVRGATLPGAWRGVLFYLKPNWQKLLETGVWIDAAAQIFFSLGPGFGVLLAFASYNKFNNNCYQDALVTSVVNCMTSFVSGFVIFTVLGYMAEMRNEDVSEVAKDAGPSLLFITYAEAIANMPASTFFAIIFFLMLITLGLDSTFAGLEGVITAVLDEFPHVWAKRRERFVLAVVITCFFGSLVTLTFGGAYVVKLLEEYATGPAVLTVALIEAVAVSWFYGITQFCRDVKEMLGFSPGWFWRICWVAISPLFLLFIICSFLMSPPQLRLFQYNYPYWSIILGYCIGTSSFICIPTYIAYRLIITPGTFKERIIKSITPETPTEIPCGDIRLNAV

Regarding `CC(C)=CCC/C(C)=C/COc1ccc2ccc(=O)oc2c1` [7-Geranyloxycoumarin, 7-geranyloxycoumarin], the results for the inhibition constant Ki in test [1] (setting [3]) and in test [2] (setting [4]) were 22.4 µM and 24.2 µM, respectively. The “number of marbles covered by sawdust, % change from control” value in the test on mice (3 mg/kg i.p. −30 minutes, 3 mg/kg) is −27%; in the test with mice (3 mg/kg i.p. −30 minutes, listed as 7-Geranyl-oxycoumauin, 3 mg/kg), −27%; in the test with mice (10 mg/kg i.p. −30 minutes, 10 mg/kg), −39%; with mice (10 mg/kg i.p. −30 minutes, listed as 7-Geranyl-oxycoumauin, 10 mg/kg), −39%; with mice (30 mg/kg i.p. −30 minutes, 30 mg/kg), −74%; in the test with mice (30 mg/kg i.p. −30 minutes, listed as 7-Geranyl-oxycoumauin, 30 mg/kg), −74%. Also, the “number of marbles covered by sawdust, mean ± s.e.m.” value was determined as 13.4 ± 2.0 in the test on mice (3 mg/kg i.p. −30 minutes), 11.3 ± 2.4 in the test with mice (10 mg/kg i.p. −30 minutes) and 4.7 ± 1.5 with mice (30 mg/kg i.p. −30 minutes).

On to `CNCCC(Oc1ccc(C(F)(F)F)cc1)c1ccccc1` (stereo not drawn) [fluoxetine, reference compound], for which the “number of marbles covered by sawdust, % change from control” value in the test on mice (32 mg/kg i.p. −30 min, 32 mg/kg) is recorded as −98%; in the test on mice (32 mg/kg i.p. −30 min, listed as Fluoxetine, 32 mg/kg), −98%. Moreover, the “number of marbles covered by sawdust, mean ± s.e.m.” value in the test on mice (32 mg/kg i.p. −30 min) is recorded as 0.3 ± 0.2.

`C/C(=C\COc1ccc2ccc(=O)oc2c1)C1=CC(=O)C(C)(C)O1` [Geiparvarin, geiparvarin]: the figures for the Ki in test [1] and in test [2] were 7 µM and 5.6 µM, respectively.

As to `COc1cc2oc(=O)ccc2cc1CC=C(C)C` [Suberosin, suberosin], the inhibitory constant (Ki) in test [1] (setting [3]) came to 9.8 µM; in test [2] (setting [4]), 39.3 µM.

Regarding `CC1(C)C=Cc2cc3ccc(=O)oc3cc2O1` [Xanthyletin, xanthyletin], the inhibitory constant (Ki) amounted to 20.2 µM in test [1] (setting [3]) and 11.9 µM in test [2] (setting [4]).

On to `C/C(=C\COc1ccc2ccc(=O)oc2c1)CCC(=O)C(C)(C)O` [6′-Dehydromarmin, 6′-dehydromarmin], for which the inhibitory constant (Ki) was 12.1 µM in test [1] (setting [3]) and 10.3 µM in test [2] (setting [4]).

Regarding `CC(=O)OC(C)(C)[C@@H]1Cc2c(ccc3ccc(=O)oc23)O1` [(S)—O-Acetylcolumbianetin], the Ki is 21.7 µM in test [1] (setting [3]) and 11.6 µM in test [2] (setting [4]).
